Key:
[1] = system: NCI-H1975; assay: CCK-8 tumor cell proliferation, NCI-H1975; format: cell-based, Human; conditions: Homo sapiens; Table 15, ALK inhibitor based; NCI-H1975; read-out: IC50 inhibiting proliferation of tumor cells, NCI-H1975
Procedure: (§1) The tumor cells used herein were cultured in a cell culture medium listed in table 4 at 37° C. in an incubator with 5% CO2. Prior to experimentation, all cells used were correctly identified by STR profiling, and tested negative for mycoplasma through routine screenings.
(§2) IC50 values of the compounds of the present disclosure (including the compounds in Tables 1 and 3, and compounds of examples) were measured using the Meilun Cell Counting Kit-8 kit from Dalian Meilun Biotech Co., Ltd. Assay details are as follows: tumor cells were seeded in a 96-well plate at a density listed in Table 5. After 24 h, 100 μL of the inoculated cells were treated with 0.5 μL of the compounds of the present disclosure (including the compounds in Tables 1 and 3, and compounds of examples) at 10 different successively decreasing concentrations (starting at the highest concentration of 10 μM; 5-fold serial dilutions). After the cells were treated with the compounds of the present disclosure for a period of time, the cell viability detection reagent was added to the culture medium for cell viability assessment according to the instructions provided with the CCK-8 kit. […] The growth inhibition of the compounds of the present disclosure on cells was plotted by Prism Graphpad software, and the IC50 values of the compounds of the present disclosure were calculated therefrom.

[2] = system: NCI-H2228; assay: CCK-8 tumor cell proliferation, NCI-H2228; conditions: Homo sapiens, Table 15, ALK inhibitor based, read-out: IC50 inhibiting proliferation of tumor cells, NCI-H2228
Procedure: as §1, §2

[3] = system: SU-DHL-6; assay: CCK-8 tumor cell proliferation, SU-DHL-6; format: cell-based, Human; conditions: 72 h
Procedure: as §1, §2

[4] = system: CCRF-CEM; assay: CCK-8 tumor cell proliferation, CCRF-CEM; format: cell-based, Human; parameters: IC50 for inhibiting the proliferation of tumor cells, CCRF-CEM: scale not given here; conditions: Table 8, designed based on ER inhibitors, 96 h
Summary of the method: (§3)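 IC50 derived from CCK-8 cell viability after compound treatment. Dilution series: 10 concentrations, 5-fold apart, from 10 μM. Compound added 24 h post-seeding; culture at 37 °C in 5% CO2.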

[5] = system: HCC827; assay: CCK-8 tumor cell proliferation, HCC827; format: cell-based, Human; conditions: Table 8, designed based on ER inhibitors, 96 h
Procedure: The tumor cells used herein were cultured in a cell culture medium listed in table 4 at 37° C. in an incubator with 5% CO2.
as §2, with “After” for “IC50 values of the compounds of the present disclosure (including the compounds in Tables 1 and 3, and compounds of examples) were measured using the Meilun Cell Counting Kit-8 kit from Dalian Meilun Biotech Co., Ltd. Assay details are as follows: tumor cells were seeded in a 96-well plate at a density listed in Table 5. After”

[6] = system: Kasumi-1; assay: CCK-8 tumor cell proliferation, Kasumi-1; format: cell-based, Human; conditions: Table 8, designed based on ER inhibitors; 72 h
Summary of the method: as §3

[7] = system: MM.1S; assay: CCK-8 tumor cell proliferation, MM.1S; format: cell-based; conditions: Table 8, designed based on ER inhibitors, 72 h
Summary of the method: as §3

[8] = system: T47D; assay: CCK-8 tumor cell proliferation, T47D; format: cell-based, Human; conditions: Table 8, designed based on ER inhibitors, 96 h
Procedure: as §1, §2

[9] = system: Mino; assay: CCK-8 tumor cell proliferation, Mino; format: cell-based, Human; conditions: for IC50 for inhibiting the proliferation of tumor cells, Mino: 72 h
Summary of the method: as §3

[10] = system: SW620; assay: CCK-8 tumor cell proliferation, SW620; format: cell-based, Human; conditions: Table 8, designed based on ER inhibitors; 96 h
Summary of the method: as §3

[11] = system: MDA-MB-231; assay: CCK-8 tumor cell proliferation, MDA-MB-231; format: cell-based, Human; parameters: IC50 for inhibiting the proliferation of tumor cells, MDA-MB-231: scale not given here; conditions: for IC50: Homo sapiens, Table 15, ALK inhibitor based, MDA-MB-231, read-out: IC50 inhibiting proliferation of tumor cells, MDA-MB-231; for IC50 for inhibiting the proliferation of tumor cells, MDA-MB-231: Table 8, designed based on ER inhibitors, 96 h
Summary of the method: as §3

[12] = system: SR; assay: CCK-8 tumor cell proliferation, SR; format: cell-based, Human; conditions: Homo sapiens; Table 15, ALK inhibitor based; SR; read-out: IC50 inhibiting proliferation of tumor cells, SR
Summary of the method: as §3

[13] = system: PC-9; assay: CCK-8 tumor cell proliferation, PC-9; format: cell-based, Human; conditions: Homo sapiens; Table 15, ALK inhibitor based; PC-9; read-out: IC50 inhibiting proliferation of tumor cells, PC-9
[14] = system: Hep3B2.7-1; assay: CCK-8 tumor cell proliferation, Hep3B2.7-1; format: cell-based, Human; conditions: Table 8, designed based on ER inhibitors, 96 h
Summary of the method: as §3

[15] = Table 8, designed based on ER inhibitors
[16] = Table 14, designed based on CDK4/6 inhibitors

SMILES | IC50 [1] [nM] | IC50 [2] [nM] | IC50 for inhibiting the proliferation of tumor cells, SU-DHL-6 [3, 15] | IC50 for inhibiting the proliferation of tumor cells, CCRF-CEM [4] | IC50 for inhibiting the proliferation of tumor cells, HCC827 [5] | IC50 for inhibiting the proliferation of tumor cells, Kasumi-1 [6] | IC50 for inhibiting the proliferation of tumor cells, MM.1S [7] | IC50 for inhibiting the proliferation of tumor cells, T47D [8] | IC50 for inhibiting the proliferation of tumor cells, SW620 [10] | further results
COc1cc(N2CCC(NCc3ccc4c(c3)CN(C3CCC(=O)NC3=O)C4=O)CC2)ccc1Nc1ncc(Cl)c(Nc2ccccc2P(C)(C)=O)n1 (stereo not shown) [GT-03015, 3-(5-(((1-(4-((5-chloro-4-((2-(dimethylphosphoryl)phenyl)amino)pyrimidin-2-yl)amino)-3-methoxyphenyl)piperidin-4-yl)amino)methyl)-1-oxoisoindolin-2-yl)piperidine-2,6-dione] | 50 to 100 | 100 to 500 | – | – | – | – | – | – | – | –
COc1cc(N2CCC(N3CCN(Cc4ccc5c(c4)CN(C4CCC(=O)NC4=O)C5=O)CC3)CC2)ccc1Nc1ncc(Cl)c(Nc2ccccc2P(C)(C)=O)n1 (stereo not shown) [GT-02811, 3-(5-((4-(1-(4-((5-chloro-4-((2-(dimethylphosphoryl)phenyl)amino)pyrimidin-2-yl)amino)-3-methoxyphenyl)piperidin-4-yl)piperazin-1-yl)methyl)-1-oxoisoindolin-2-yl)piperidine-2,6-dione] | 100 to 500 | 1000 to 5000 | – | – | – | – | – | – | – | –
CCC(=C(c1ccc(O)cc1)c1ccc(N2CCN(Cc3ccc4c(c3)CN(C3CCC(=O)NC3=O)C4=O)CC2)cc1)c1ccc(O)cc1 (stereo not shown) [GT-03551, 3-(5-((4-(4-(1,2-bis(4-hydroxyphenyl)but-1-en-1-yl)phenyl)piperazin-1-yl)methyl)-1-oxoisoindolin-2-yl)piperidine-2,6-dione] | – | – | A+ | A+ | A+ | A+ | A+ | A+ | A+ | IC50 for inhibiting the proliferation of tumor cells, Mino [9, 15]: A+
Cc1cc(Nc2ncc(Cl)c(Nc3ccccc3S(=O)(=O)C(C)C)n2)c(OC(C)C)cc1C1CCN(Cc2ccc3c(c2)CN(C2CCC(=O)NC2=O)C3=O)CC1 (stereo not shown) [GT-02973, 3-(5-((4-(4-((5-chloro-4-((2-(isopropylsulfonyl)phenyl)amino)pyrimidin-2-yl)amino)-5-isopropoxy-2-methylphenyl)piperidin-1-yl)methyl)-1-oxoisoindolin-2-yl)piperidine-2,6-dione] | – | 100 to 500 | – | – | – | – | – | – | – | IC50 [11]: 500 to 1000 nM; IC50 [12]: < 50 nM; IC50 [13]: 500 to 1000 nM
Cc1nc2c(F)cc(-c3nc(Nc4ccc(N5CCC(N(C)Cc6ccc7c(c6)CN(C6CCC(=O)NC6=O)C7=O)CC5)cn4)ncc3F)cc2n1C(C)C (stereo not shown) [GT-03639, 3-(5-(((1-(6-((5-fluoro-4-(4-fluoro-1-isopropyl-2-methyl-1H-benzo[d]imidazol-6-yl)pyrimidin-2-yl)amino)pyridin-3-yl)piperidin-4-yl)(methyl)amino)methyl)-1-oxoisoindolin-2-yl)piperidine-2,6-dione] | – | – | – | – | – | – | – | – | – | IC50 for inhibiting the proliferation of tumor cells, SU-DHL-6 [3, 16]: A+; IC50 for inhibiting the proliferation of tumor cells, Mino [9, 16]: A+
CCC(=C(c1ccc(O)cc1)c1ccc(OCCNCc2ccc3c(c2)CN(C2CCC(=O)NC2=O)C3=O)cc1)c1ccc(O)cc1 (stereo not shown) [GT-03214, 3-(5-(((2-(4-(1,2-bis(4-hydroxyphenyl)but-1-en-1-yl)phenoxy)ethyl)amino)methyl)-1-oxoisoindolin-2-yl)piperidine-2,6-dione] | – | – | A+ | A+ | A+ | A+ | A+ | A+ | A+ | IC50 for inhibiting the proliferation of tumor cells, Hep3B2.7-1 [14]: A+; IC50 for inhibiting the proliferation of tumor cells, MDA-MB-231 [11]: A+
O=C1CCC(N2Cc3cc(CN4CCN(c5ccc(C(=C(CCCl)c6ccc(O)cc6)c6ccc(O)cc6)cc5)CC4)ccc3C2=O)C(=O)N1 (stereo not shown) [GT-03638, 3-(5-((4-(4-(4-chloro-1,2-bis(4-hydroxyphenyl)but-1-en-1-yl)phenyl)piperazin-1-yl)methyl)-1-oxoisoindolin-2-yl)piperidine-2,6-dione] | – | – | A+ | A+ | A+ | A+ | A+ | A+ | A+ | IC50 for inhibiting the proliferation of tumor cells, Hep3B2.7-1 [14]: A+; IC50 for inhibiting the proliferation of tumor cells, MDA-MB-231 [11]: A+; IC50 for inhibiting the proliferation of tumor cells, Mino [9, 15]: A+
CC/C(=C(/c1ccc(O)cc1)c1ccc(OCCN)cc1)c1ccc(O)cc1 [GT-03308, reference compound] | – | – | – | – | – | – | – | – | – | IC50 ([4]; Homo sapiens, CCRF-CEM, read-out: IC50 for inhibiting the proliferation of tumor cells, CCRF-CEM): > 10000 nM; IC50 ([5]; Homo sapiens, HCC827, read-out: IC50 for inhibiting the proliferation of tumor cells, HCC827): > 10000 nM; IC50 ([14]; Homo sapiens, read-out: IC50 for inhibiting the proliferation of tumor cells, Hep3B2.7-1): > 10000 nM; IC50 ([7]; Homo sapiens, MM1.S, read-out: IC50 for inhibiting the proliferation of tumor cells, MM.1S): > 10000 nM; IC50 ([8]; Homo sapiens, T47D, read-out: IC50 for inhibiting the proliferation of tumor cells, T47D): > 10000 nM
CCc1cc2c(cc1N1CCC(N3CCOCC3)CC1)C(C)(C)c1[nH]c3cc(C#N)ccc3c1C2=O [alectinib, reference compound] | 1000 to 5000 | 1000 to 5000 | – | – | – | – | – | – | – | IC50 [11]: 1000 to 5000 nM; IC50 [12]: < 50 nM; IC50 ([9]; Homo sapiens, Table 15, ALK inhibitor based, Mino, read-out: IC50 inhibiting proliferation of tumor cells, Mino): 5000 to 10000 nM; IC50 [13]: 100 to 500 nM
CN(C)C(=O)c1cc2cnc(Nc3ccc(N4CCC(N(C)Cc5ccc6c(c5)CN(C5CCC(=O)NC5=O)C6=O)CC4)cn3)nc2n1C1CCCC1 (stereo not shown) [GT-03544, 7-cyclopentyl-2-((5-(4-(((2-(2,6-dioxopiperidin-3-yl)-1-oxoisoindolin-5-yl)methyl)(methyl)amino)piperidin-1-yl)pyridin-2-yl)amino)-N,N-dimethyl-7H-pyrrolo[2,3-d]pyrimidine-6-carboxamide] | – | – | – | – | – | – | – | – | – | IC50 for inhibiting the proliferation of tumor cells, SU-DHL-6 [3, 16]: A+

— patent publication US20260199323A1, “LIGAND COMPOUNDS FOR E3 UBIQUITIN LIGASE, PROTEIN DEGRADERS DEVELOPED ON BASIS OF LIGAND COMPOUNDS, AND USES THEREOF” (GLUETACS THERAPEUTICS (SHANGHAI) CO., LTD., priority 2021, published 2026)
